Data on 1 compound can be found in US20080051464A1, “Protein phosphatase inhibitors” (The Cleveland Clinic Foundation, priority 2006, published 2008).

Data set [1] deals with pLck-pY505 (dephosphorylated by PTPase CD45) in Jurkat cells. The data set is described as follows: pLck-pY505 in Jurkat cells (Western blotting). Conditions: L5-treated Jurkat cells. It counts as cell-based, human. How it is done:
Jurkat cells in culture medium (3×10^6 cells/ml, 1 ml/tube) were treated with agents for designated times at room temperature. After brief centrifuging in a microfuge (4,000 rpm, 2 min), the cell pellet was lysed on ice for 30 min in 100 μl of cold lysis buffer (1% NP40, 50 mM Tris, pH 7.4, 150 mM NaCl, 20 mM NaF, 0.2 mM Na3VO4 and 1 mM Na3MO4) containing a cocktail of proteinase inhibitors (Sigma, 1 tablet/10 ml). The lysates were cleared by centrifuging (14,000 rpm, 10 min) in a microfuge at 4° C. to remove insoluble parts, mixed with equal volume of 2×SDS-PAGE sample buffer, boiled for 5 min and analyzed (˜3×10^5 cells/well) by SDS-PAGE/Western blotting. Relative intensities of phosphotyrosine bands were quantified through densitometry analysis.
In general terms: Immunoblotting shows a protein as a band on a membrane.

The next data set relates to Jurkat cells. The data set is described as follows: Jurkat cell growth in culture (MTT assay). It counts as cell-based, human. How it is done:
(§1) FIG. 3 illustrates differential toxicity of L5 and L6. Jurkat cells were cultured in the absence or presence of lead compound #5 (L5) (A) or #6 (L6) (B) for 6 days prior to quantification of cell growth by MTT assays. Data represent mean ±SD of triplicate samples. Balb/c mice were treated with L5 (˜10 mg/kg body weight, s.c., daily, M-F/wk) for two weeks to assess its toxicity in vivo (C).
L5, L6 and L6 analogs (Chembridge), mouse IFNγ ELISPOT Kit (R & D System) and antibody against pLck-pY394 or pERK1/2 (Cell Signaling) were purchased from commercial sources. Human Jurkat T cell line and murine B16 melanoma cell line (ATCC) and other cancer cell lines were maintained in […] culture medium supplemented with 10% fetal calf serum (FCS). The effects of chemical compounds on cancer cell growth in culture were quantified by MTT assays following our established procedures.
For orientation: Tetrazolium assays rely on reduction of a dye to a coloured formazan, in cell work by metabolically active cells.

Another data set deals with T1, recombinant SHP-1 (Homo sapiens, UniProt P29350).
T1 construct: Recombinant protein of SHP-1 PTPase catalytic domain was described
T1 sequence (P29350 244-515 limits assumed): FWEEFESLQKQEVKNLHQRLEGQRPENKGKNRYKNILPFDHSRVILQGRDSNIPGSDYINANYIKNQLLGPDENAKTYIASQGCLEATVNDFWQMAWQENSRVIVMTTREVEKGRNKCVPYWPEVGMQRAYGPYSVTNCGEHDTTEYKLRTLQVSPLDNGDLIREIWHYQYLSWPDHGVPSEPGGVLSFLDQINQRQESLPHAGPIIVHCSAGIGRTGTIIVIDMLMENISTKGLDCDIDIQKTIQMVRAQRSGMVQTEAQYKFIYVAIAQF
The experiment in a line: rapid in vitro SHP-1 PTPase assay (DIFMUP substrate). It counts as biochemical. The settings on record: 1 μg/well; FIG. 12A. The protocol: Recombinant protein of SHP-1 PTPase catalytic domain was described and stored in Tris buffer (25 mM Tris, pH7.5, 1 mM EDTA, 2 μM 2-ME, 25% glycerol) at −80° C. Fluorescence substrate DIFMUP (6,8-difluoro-4 methylumbelliferyl phosphate) was purchased (Molecular Probes). SSG was reported previously (21-23) and stored at 4° C. in darkness prior to use. Human and mouse IFNγ ELISPOT Kit (R & D System), CD4^+ Cell Intracellular IFNγ Detection Kit (BD Bioscience) and CD8^+ Cell Intracellular IFNγ Detection Kit (BD Bioscience) were purchased from commercial sources. Human Jurkat T cell line (26) and murine B16 melanoma cell line (ATCC) were maintained in […] culture medium supplemented with 10% fetal calf serum (FCS). Antibodies against pLck-pY394 (Cell Signaling), pLck-pY505 (Cell Signaling), pZap70 (pY319, BD Biosciences), pSlp76 (pY128, BD Biosciences) and pLat (pY226, BD Biosciences) were purchased from commercial sources.
(§2) A rapid SHP-1 PTPase assay was developed for screening the compounds in a commercial library of 34,000 drug-like small chemicals (Chembridge, Mass.). Briefly, compounds of the library (1 μg/well in 0.21 DMSO) were placed in 96-well plates (Falcon, 353072) and mixed with recombinant SHP-1 protein (0.1 μg/well) in 90 μl of HEPES buffer (50 mM HEPS, pH 7.5, 150 mM NaCl, 1 mM EDTA, 0.2 mM DTT and 0.1 mg/ml BSA). The plates were incubated at room temperature for 10 minutes prior to the addition of fluorescence substrate DIFMUP (40 μM stock in HEPES buffer, 10 μl/well) to initiate PTPase reaction. Upon completion of PTPase reaction at room temperature for 1 hr in darkness, fluorescence signal of individual wells were recorded using a Vector^2 Multilabel Counter (Vector, CA). They were compared to that of control SHP-1 PTPase reaction (˜10,000 units of fluorescence signal) in the absence of any compound (100%) for calculating relative SHP-1 inhibition induced by the compounds after subtracting the background signal (˜500 units of fluorescence signal) of the substrate.
as §2, with “To evaluate their” for “A rapid”, “inhibitory activity,” for “PTPase assay was developed for screening”, “analogs” for “compounds in a commercial library of 34,000 drug-like small chemicals (Chembridge, Mass.). Briefly, compounds of the library”, “0.2 μl” for “0.21”, “aliquot individually to” for “placed in”, “(500” for “(˜500”

Another data set can be described thus: toxicity of L5 in mice. Format: in vivo, mouse. Conditions: 10 mg/kg, daily, s.c., two weeks. The protocol:
as §1
Spleens were harvested one hour post-treatment on day 4 and processed into splenocytes, which were used for assessing pLck levels by SDS-PAGE/Western blotting and for quantification of IFNγ+ cells by ELISPOT assays. Mice were also treated with L5 (˜10 mg/kg body weight, daily, s.c., n=2) to evaluate the toxicity of the compounds in vivo.

In the case of `O=C1C=CC(=O)C(c2cc(Cl)ccc2Cl)=C1` [L5], in data set [1], the pLck-pY505 result is recorded as “little effects”. Moreover, the “toxicity against Jurkat cells in culture (summary)” value in the data set on Jurkat cells is reported as “marked toxicity”. In the data set with Jurkat cells (~30 ng-1 μg/ml, 6 days), the “growth of Jurkat cells in culture” value is “not markedly affected”. The “inhibition of phosphatase activity of recombinant SHP-1” value on recombinant SHP-1 was “completely or almost completely inhibited”. Further, the viability of mice result in the data set “toxicity of L5 in mice” is on record as “all alive”.
